For one assay, the target named is T1, MAT2A homodimer (Homo sapiens, UniProt P31153).
T1 construct: inferred from Ni sepharose purification and imidazole elution; made in house; host or cells: Sf9 insect cells, recombinant baculovirus (Bac to Bac, pFASTBAC1 vector)
Nature of the assay: Biochemical assay: inhibition of recombinant MAT2A homodimer (phosphate release, PiColorLock Gold). Conditions: MAT2A IC50 score; read-out: Enzyme Inhibition. The essentials: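 Baculovirus/Sf9-expressed, Ni-purified MAT2A at 4 μg/mL in pH 8.0 Tris/KCl/MgCl2/EDTA/BSA buffer, preincubated with compound 60 min at 25 °C. Started with ATP and L-methionine substrate mix (500 μM and 40 μM, stock in mix), 60 min at 25 °C; released phosphate by PiColorLock Gold against a phosphate standard curve.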

In a further assay the test system is HCT116 MTAP-/-. In words: Inhibition of cellular proliferation, 4 days, Cell Titer Glo, HCT116 MTAP-/-. The class given is cell-based. Conditions: Homo sapiens, HCT-116, 96 h, IC50 score, read-out: 4 Day Relative Growth Inhibition (MTAP −/−). The method in brief:
(§1)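 Isogenic human colon carcinoma lines differing only in MTAP status, plated 24 h before dosing, then exposed for 4 days at 37 °C/5% CO2 to a 10-point 3-fold dilution series (0.2% DMSO final). Read-out is Cell Titer Glo ATP luminescence, blank-subtracted and normalised to in-plate DMSO control, plotted as % proliferation change versus log molar concentration.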
In general terms: Cellular ATP, detected with luciferase, serves as a proxy for viable cell number.

For assay [1], the system named is SAM in HCT116 human colon carcinoma cell line with deleted MTAP gene. In words: Cellular assay of target engagement (SAM): SAM level by LC-MS/MS after 72 hrs. The class given is cell-based. Conditions: HCT-116, IC50 score, read-out: Cell 72 h SAM Inhibition (MTAP −/−). The method in brief: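 MTAP-deleted HCT116 cells were seeded, then exposed 24 h later to a 10-point 3-fold compound dilution series for 72 h at 37 °C/5% CO2. They were lysed in cold 80% methanol/acetic acid containing d3-SAM internal standard. SAM was quantified by LC-MS/MS (MRM, m/z 399.2→250.1).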

For another assay, the system named is HCT116 MTAP +/+. Nature of the assay: Inhibition of cellular proliferation, 4 days, Cell Titer Glo, HCT116 MTAP+/+. The class given is cell-based. Conditions: Homo sapiens, HCT-116, 96 h, IC50 score, read-out: 4 Day Relative Growth Inhibition (MTAP +/+). The method in brief:
as §1

T1 sequence (P31153 whole entry): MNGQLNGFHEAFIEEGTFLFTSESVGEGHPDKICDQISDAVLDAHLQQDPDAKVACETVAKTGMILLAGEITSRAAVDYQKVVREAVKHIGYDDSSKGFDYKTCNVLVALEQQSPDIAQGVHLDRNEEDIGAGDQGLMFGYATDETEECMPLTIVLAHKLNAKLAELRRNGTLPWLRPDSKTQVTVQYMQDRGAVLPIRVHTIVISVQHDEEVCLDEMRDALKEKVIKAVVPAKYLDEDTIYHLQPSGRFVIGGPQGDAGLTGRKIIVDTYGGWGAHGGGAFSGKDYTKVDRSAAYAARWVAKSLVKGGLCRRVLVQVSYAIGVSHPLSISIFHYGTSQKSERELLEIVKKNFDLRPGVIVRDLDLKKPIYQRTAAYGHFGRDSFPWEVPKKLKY

As to `Cn1cc2cc(-c3cc4ccc(OCC(F)F)nc4n(-c4ccc5scnc5c4)c3=O)ccc2n1` [Example 169], the IC50 at MAT2A homodimer was below 0.1 µM; in the assay on HCT116 MTAP-/-, 0.1 to 1 µM; in assay [1], below 0.1 µM; in the assay on HCT116 MTAP +/+ it was at least 1 µM.
Take `CCOc1ccc2cc(-c3ccc4nn(C)cc4c3)c(=O)n(-c3ccc(Br)cc3)c2n1` [Example 317]: the IC50 is below 0.1 µM at MAT2A homodimer, 0.1 to 1 µM in the assay with HCT116 MTAP-/-, below 0.1 µM in assay [1] and 0.1 to 1 µM in the assay on HCT116 MTAP +/+.
In the case of `COc1ccc(-n2c(=O)c(-c3cn[nH]c3)cc3cnc(NCC(F)(F)F)nc32)cc1` [Example 183], the IC50 on MAT2A homodimer is below 0.1 µM; with HCT116 MTAP-/-, at least 1 µM; in assay [1], 0.1 to 1 µM; with HCT116 MTAP +/+, at least 1 µM.
On to `COc1ccc(-c2cc3cnc(NCC(F)(F)F)nc3n(-c3ccc(-c4nc[nH]n4)cc3)c2=O)cc1` [Example 101, 8-(4-(1H-1,2,4-triazol-3-yl)phenyl)-6-(4-methoxyphenyl)-2-(2,2,2-trifluoroethylamino)pyrido[2,3-d]pyrimidin-7(8H)-one], for which the IC50 at MAT2A homodimer is below 0.1 µM; in the assay with HCT116 MTAP-/-, 0.1 to 1 µM; in assay [1] it was below 0.1 µM; with HCT116 MTAP +/+ it was at least 1 µM.
As to `[2H]C([2H])([2H])Oc1ccc(-n2c(=O)c(-c3ccc4nn(C)cc4c3)cc3ccc(O[C@@H](C)C(F)(F)F)nc32)cc1` [Example 305], the IC50 on MAT2A homodimer is below 0.1 µM; with HCT116 MTAP-/-, below 0.1 µM; in assay [1], below 0.1 µM; in the assay with HCT116 MTAP +/+, at least 1 µM.
In the case of `COc1ccc(-c2cc3ccc(NCC(F)(F)F)nc3n(-c3ccc(OC(F)F)cc3)c2=O)cc1` [Example 130, 1-(4-(difluoromethoxy)phenyl)-3-(4-methoxyphenyl)-7-(2,2,2-trifluoroethylamino)-1,8-naphthyridin-2(1H)-one], the IC50 at MAT2A homodimer was below 0.1 µM; with HCT116 MTAP-/-, 0.1 to 1 µM; in assay [1] it was below 0.1 µM; in the assay with HCT116 MTAP +/+, at least 1 µM.
For the molecule `Cn1cc2cc(-c3nc4ccc(OCC(F)(F)F)nc4n(-c4ccc(C5CC5)nc4)c3=O)ccc2n1` [Example 332], the IC50 was below 0.1 µM on MAT2A homodimer, below 0.1 µM in the assay with HCT116 MTAP-/-, below 0.1 µM in assay [1] and at least 1 µM in the assay with HCT116 MTAP +/+.
Consider `[2H]C([2H])([2H])Oc1ccc(-n2c(=O)c(-c3ccc4nn(C)cc4c3)nc3ccc(OCC)nc32)cc1` [Example 324], for which the IC50 is below 0.1 µM on MAT2A homodimer, below 0.1 µM with HCT116 MTAP-/-, below 0.1 µM in assay [1] and 0.1 to 1 µM in the assay on HCT116 MTAP +/+.
Regarding `COc1ccc(-n2c(=O)c(-c3ccc4nc(C)n(C)c4c3)nc3ccc(OCC(F)(F)F)nc32)cc1` [Example 340], the IC50 on MAT2A homodimer was below 0.1 µM; with HCT116 MTAP-/-, below 0.1 µM; in assay [1], below 0.1 µM; in the assay on HCT116 MTAP +/+, at least 1 µM.
For `CCOc1ccc2cc(-c3ccc4nn(C)cc4c3)c(=O)n(-c3ccc(OC(F)F)nc3)c2n1` [Example 155], the IC50 on MAT2A homodimer is below 0.1 µM; with HCT116 MTAP-/- it was below 0.1 µM; in assay [1], below 0.1 µM; with HCT116 MTAP +/+, at least 1 µM.
Take `CCOc1ccc2cc(-c3ccc4nn(C)cc4c3)c(=O)n(-c3ccc(C(F)(F)F)nc3)c2n1` [Example 151, 7-ethoxy-3-(2-methyl-2H-indazol-5-yl)-1-(6-(trifluoromethyl)pyridin-3-yl)-1,8-naphthyridin-2(1H)-one]: the IC50 on MAT2A homodimer is below 0.1 µM; in the assay with HCT116 MTAP-/-, below 0.1 µM; in assay [1] it was below 0.1 µM; in the assay on HCT116 MTAP +/+, at least 1 µM.
Consider `COc1ccc(-c2cc3cnc(NCC(F)(F)F)nc3n(-c3ccc(O)cc3)c2=O)cc1` [Example 106], for which the IC50 at MAT2A homodimer is 0.1 to 1 µM; in the assay on HCT116 MTAP-/-, 0.1 to 1 µM; in assay [1] it was 0.1 to 1 µM; in the assay with HCT116 MTAP +/+, at least 1 µM.
As to `CCNc1ccc2cc(-c3ccc4nn(C)cc4c3)c(=O)n(-c3ccc(OC(F)F)cc3)c2n1` [Example 309], the IC50 (at MAT2A homodimer; in the assay with HCT116 MTAP-/-; in assay [1]; in the assay on HCT116 MTAP +/+) was below 0.1 µM each time.
Consider `COc1ccc(-n2c(=O)c(-c3ccc4nc(N)n(C)c4c3)nc3ccc(OCC(F)(F)F)nc32)cc1` [Example 351, 2-(2-amino-1-methyl-1H-benzo[d]imidazol-6-yl)-4-(4-methoxyphenyl)-6-(2,2,2-trifluoroethoxy)pyrido[2,3-b]pyrazin-3(4H)-one], for which the IC50 on MAT2A homodimer was below 0.1 µM; in the assay on HCT116 MTAP-/- it was below 0.1 µM; in assay [1], below 0.1 µM; in the assay with HCT116 MTAP +/+, at least 1 µM.
In the case of `[2H]C([2H])([2H])Oc1ccc(-n2c(=O)c(-c3ccc4nn(C)cc4c3)cc3ccc(OCC(F)F)nc32)cc1` [Example 149], the IC50 on MAT2A homodimer was below 0.1 µM; in the assay on HCT116 MTAP-/- it was below 0.1 µM; in assay [1], below 0.1 µM; in the assay with HCT116 MTAP +/+, 0.1 to 1 µM.
As for `COc1ccc(-n2c(=O)c(-c3ccc4nccnc4c3)cc3cnc(NCC(F)(F)F)nc32)cc1` [Example 185], the IC50 at MAT2A homodimer was below 0.1 µM; in the assay on HCT116 MTAP-/- it was 0.1 to 1 µM; in assay [1], below 0.1 µM; in the assay on HCT116 MTAP +/+ it was at least 1 µM.
Turning to `CCOc1ccc2cc(-c3ccc4nncn4c3)c(=O)n(-c3ccc(Cl)cc3)c2n1` [Example 205], the IC50 on MAT2A homodimer is below 0.1 µM; in the assay on HCT116 MTAP-/- it was below 0.1 µM; in assay [1], below 0.1 µM; in the assay with HCT116 MTAP +/+, at least 1 µM.
With `[2H]C([2H])([2H])Oc1ccc(-n2c(=O)c(-c3ccc4nn(C)cc4c3)cc3ccc(OCC)nc32)cc1` [Example 148], the IC50 on MAT2A homodimer was below 0.1 µM; in the assay on HCT116 MTAP-/-, below 0.1 µM; in assay [1], below 0.1 µM; with HCT116 MTAP +/+, 0.1 to 1 µM.
As to `Cn1cc2cc(-c3cc4ccc(OCC(F)(F)F)nc4n(-c4ccc(C5CC5)nc4)c3=O)ccc2n1` [Example 166], the IC50 was below 0.1 µM at MAT2A homodimer, below 0.1 µM in the assay with HCT116 MTAP-/-, below 0.1 µM in assay [1] and at least 1 µM with HCT116 MTAP +/+.
In the case of `CCOc1ccc2nc(-c3ccc4nn(C)cc4c3)c(=O)n(-c3ccc(OC(F)F)cc3)c2n1` [Example 224], the IC50 at MAT2A homodimer is below 0.1 µM; in the assay with HCT116 MTAP-/- it was below 0.1 µM; in assay [1], below 0.1 µM; with HCT116 MTAP +/+, 0.1 to 1 µM.
For `COc1ccc(-n2c(=O)c(-c3ccc4nn(C)cc4c3)cc3ccc(OCC(F)F)nc32)cn1` [Example 124], the IC50 on MAT2A homodimer is below 0.1 µM; with HCT116 MTAP-/- it was below 0.1 µM; in assay [1], below 0.1 µM; in the assay on HCT116 MTAP +/+ it was 0.1 to 1 µM.
`CCOc1ccc2cc(-c3ccc4nccn4c3)c(=O)n(-c3ccc(OC(F)F)cc3)c2n1` [Example 210]: the IC50 on MAT2A homodimer is below 0.1 µM; in the assay on HCT116 MTAP-/-, below 0.1 µM; in assay [1] it was below 0.1 µM; in the assay on HCT116 MTAP +/+, 0.1 to 1 µM.
Turning to `COc1ccc(-n2c(=O)c(-c3ccc4[nH]cnc4c3)cc3cnc(NCC(F)(F)F)nc32)cc1` [Example 174], the IC50 on MAT2A homodimer is below 0.1 µM; in the assay on HCT116 MTAP-/- it was at least 1 µM; in assay [1], below 0.1 µM; with HCT116 MTAP +/+ it was at least 1 µM.
Take `COc1ccc(-c2cc3cnc(NCC(F)(F)F)nc3n(-c3ccc(OC(F)F)cc3)c2=O)cc1` [Example 127]: the IC50 at MAT2A homodimer was below 0.1 µM; with HCT116 MTAP-/- it was 0.1 to 1 µM; in assay [1] it was below 0.1 µM; with HCT116 MTAP +/+ it was at least 1 µM.
Take `[2H]C([2H])([2H])Oc1ccc(-n2c(=O)c(-c3ccc4nn(C)cc4c3)cc3ccc(OC([2H])([2H])C([2H])([2H])[2H])nc32)cc1` [Example 301]: the IC50 on MAT2A homodimer is below 0.1 µM; in the assay on HCT116 MTAP-/-, below 0.1 µM; in assay [1], below 0.1 µM; with HCT116 MTAP +/+ it was 0.1 to 1 µM.
`COc1ccc(-c2cc3ncc(NCC(F)(F)F)nc3n(-c3ccc(OC(F)F)cc3)c2=O)cc1` [Example 237, 5-(4-(difluoromethoxy)phenyl)-7-(4-methoxyphenyl)-3-((2,2,2-trifluoroethyl)amino)pyrido[2,3-b]pyrazin-6(5H)-one]: the IC50 on MAT2A homodimer was below 0.1 µM; in the assay with HCT116 MTAP-/-, below 0.1 µM; in assay [1] it was below 0.1 µM; in the assay with HCT116 MTAP +/+ it was at least 1 µM.
Consider `COc1ccc(-n2c(=O)c(-c3ccc4ncoc4c3)cc3cnc(NCC(F)(F)F)nc32)cc1` [Example 189], for which the IC50 is below 0.1 µM at MAT2A homodimer, 0.1 to 1 µM in the assay with HCT116 MTAP-/-, 0.1 to 1 µM in assay [1] and at least 1 µM in the assay with HCT116 MTAP +/+.
On to `[2H]C([2H])([2H])Oc1ccc(-n2c(=O)c(-c3ccc4nn(C)cc4c3)cc3ccc(OCCF)nc32)cc1` [Example 302], for which the IC50 is below 0.1 µM on MAT2A homodimer, below 0.1 µM with HCT116 MTAP-/-, below 0.1 µM in assay [1] and 0.1 to 1 µM in the assay with HCT116 MTAP +/+.
With `Cn1cc2cc(-c3cc4ccc(OCC(F)(F)F)nc4n(-c4ccc(C5CC5)cc4)c3=O)ccc2n1` [Example 314], the IC50 at MAT2A homodimer was below 0.1 µM; in the assay on HCT116 MTAP-/-, below 0.1 µM; in assay [1], below 0.1 µM; in the assay with HCT116 MTAP +/+ it was at least 1 µM.
`[2H]C([2H])([2H])Oc1ccc(-n2c(=O)c(-c3ccc4nncn4c3)cc3ccc(OCC(F)F)nc32)cc1` [Example 220]: the IC50 at MAT2A homodimer is below 0.1 µM; in the assay with HCT116 MTAP-/-, below 0.1 µM; in assay [1] it was below 0.1 µM; with HCT116 MTAP +/+ it was at least 1 µM.

The record behind these values is patent publication US20220251081A1, “HETEROBICYCLIC INHIBITORS OF MAT2A AND METHODS OF USE FOR TREATING CANCER” (priority 2019, published 2022).
